Values of other authors, collected in US12247090B2, “Enzyme-mediated free radical initiating systems for the production of hydrogels and controlled radical polymerization processes” (Duke University, priority 2021, dated 2025).

Tested on: rat
Conditions: in vivo, po

CC(=O)CC(C)=O [ACAC, acetylacetone]
LD50: 55 mg/kg
